Data on 22 molecules can be found in PubChem BioAssay (NCI).

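Tested at 5 concentrations; 48 h exposure; 96-well plates; endpoints linearly interpolated, else capped at highest concentration. GI50 = concentration required for 50% inhibition of growth. At the TGI there is no net growth.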

Assay in all cases: NCI tumour cell line growth inhibition, 48 h
For experiment [1], the system named is EKVX NSCLC.
The subject of experiment [2] is KM12 colon.
For experiment [3], the system named is SK-OV-3 ovarian.
For experiment [4], the system named is OVCAR-4 ovarian.
The subject of experiment [5] is OVCAR-8 ovarian.
Experiment [6] concerns HOP-92 NSCLC.
The test system of experiment [7] is IGROV1 ovarian.
The subject of experiment [8] is HT29 colon.
Experiment [9] concerns NCI-H23 lung.
The test system of experiment [10] is NCI-H522 lung.

As to `COC(=O)C1=CCS(=O)(=O)C1`, the TGI in experiment [1], in experiment [2], in [3], in experiment [4], in [5] and in experiment [6] was over 100 µM in each case. Moreover, the TGI in experiment [7], in experiment [8] and in experiment [9] was over 100 µM throughout.
`CC(NC(=O)C1(N)CCCC1)C(=O)O` (stereo not given): the TGI in experiment [1], in experiment [2], in [10], in experiment [3], in [4] and in experiment [5] was over 100 µM in each case. Further, the TGI in experiment [7], in experiment [8] and in experiment [9] was over 100 µM each time.
As for `O=C(NCCOCCO)c1ccc(O)cc1`, the TGI in experiment [1] was 42.9 µM; in experiment [10], over 100 µM; in [3], over 100 µM; in experiment [5], over 100 µM; in [6] it was over 100 µM; in experiment [7], over 100 µM. Besides, the TGI in experiment [9] was over 100 µM.
For `COc1cc(Cl)c(C)cc1NC(=O)c1cc2ccccc2cc1O`, the GI50 is 1.65 µM in experiment [1]; 2.6 µM in experiment [2]; 1.46 µM in experiment [10]; 3.28 µM in experiment [4]; 2.7 µM in [5]; 0.398 µM in experiment [6]. Also, the GI50 was 3.04 µM in experiment [7], 2.88 µM in experiment [8] and 1.97 µM in experiment [9]. The TGI in experiment [1] stood at 9.03 µM; in experiment [2] it was 8.15 µM; in experiment [10], 4.47 µM; in experiment [4], 18.5 µM; in [5], 10.4 µM; in experiment [6] it was 3.57 µM. Besides, the TGI in experiment [7] came to 34.4 µM; in experiment [8], 8.34 µM; in [9] it was 8.19 µM.
`COc1ccc2c(C(=O)NCCCCCC(=O)O)cc3cc4c(cc3c2c1)OCO4`: the GI50 in experiment [1], in [2], in experiment [3], in experiment [5], in experiment [6] and in experiment [8] was over 100 µM throughout. The GI50 in [9] is over 100 µM. Also, the TGI in experiment [1], in experiment [2], in experiment [3], in experiment [5], in [6] and in experiment [8] was over 100 µM each time. This molecule also showed a TGI in experiment [9] of over 100 µM.
Take `C=C1[C@@H]2CCC(C)(C)[C@H]1CCC(=O)[C@@H]2C(=O)OC`: the TGI in [1], in experiment [4], in experiment [5], in [7], in [8] and in [9] was over 100 µM in each case.
For `Cc1ccc(Sc2cc([N+](=O)[O-])cc(Sc3ccc(C)cc3)c2Sc2ccc(C)cc2)cc1`, the TGI in experiment [1], in experiment [2], in experiment [5], in [7] and in experiment [8] was over 100 µM each time.
In the case of `O=C(/C=C/c1ccco1)c1cccc(Nc2nc(Nc3ccccc3)nc(Nc3ccccc3)n2)c1`, the GI50 was 9.82 µM in experiment [1]; 6.06 µM in experiment [2]; 44.6 µM in [10]; over 86.6 µM in [3]; 10.6 µM in experiment [4]; 10 µM in [5]. Moreover, the GI50 in experiment [7] was 2.87 µM; in experiment [8], 17.2 µM; in experiment [9] it was 26.1 µM. Also, the TGI in experiment [1] is over 100 µM; in [2], over 100 µM; in experiment [10] it was over 100 µM; in experiment [3], over 100 µM; in experiment [4], over 100 µM; in experiment [5], over 83.2 µM. Further, the TGI in experiment [7], in experiment [8] and in experiment [9] was over 100 µM throughout.
Regarding `COc1cc(/C=C/C(=O)c2ccc(SC)cc2)cc(OC)c1OC`, the GI50 in experiment [1] was 14.9 µM; in experiment [2], 13.3 µM; in experiment [10], 8.82 µM; in [3], 15.8 µM; in experiment [5], 2.44 µM; in experiment [6], 32.9 µM. Besides, the GI50 in [8] was 4.15 µM; in experiment [9], 10 µM. In addition, the TGI in experiment [1] is 29.4 µM; in [2] it was 29.1 µM; in experiment [10] it was 23.8 µM; in experiment [3], 30.6 µM; in experiment [5] it was 5.85 µM; in [6] it was over 100 µM. Further, the TGI was 24.4 µM in experiment [8] and 23.5 µM in experiment [9].
Turning to `Nc1c(S(=O)(=O)O)cc2c(c1Cl)C(=O)c1ccccc1C2=O`, the GI50 in experiment [1], in experiment [2], in [10], in [3], in experiment [5] and in [6] was over 100 µM each time. Besides, the GI50 in [7], in experiment [8] and in experiment [9] was over 100 µM in each case. Besides, the TGI in experiment [1], in [2], in experiment [10], in experiment [3], in experiment [5] and in [6] was over 100 µM each time. The TGI in experiment [7], in experiment [8] and in [9] was over 100 µM throughout.
Turning to `O=c1cc(/C=C/c2ccccc2)c2ccc(O/C(=C\c3ccccc3)c3nc4ccccc4c(=O)o3)cc2o1`, the TGI is over 100 µM in experiment [1]; over 100 µM in experiment [2]; over 100 µM in [3]; over 100 µM in [4]; over 100 µM in experiment [5]; 86.1 µM in experiment [6]. Besides, the TGI in experiment [7] was over 100 µM; in [9], 28.7 µM.
As for `O=C1CCC(=O)C12CCc1ccccc12`, the TGI in experiment [1], in experiment [3], in [4], in experiment [5], in [6] and in [7] was over 100 µM throughout. Besides, the TGI in [8] and in experiment [9] was over 100 µM in each case.
Consider `c1ccc(Oc2cnc3ccccc3n2)cc1`, for which the GI50 in experiment [1] is 77.4 µM; in experiment [2] it was over 100 µM; in experiment [10], over 100 µM; in experiment [3], over 100 µM; in experiment [4], over 100 µM; in [5] it was over 100 µM. In addition, the GI50 in experiment [7] is 74.5 µM; in experiment [8], over 100 µM; in [9], over 100 µM. The TGI in [1], in [2], in [10], in experiment [3], in experiment [4] and in experiment [5] was over 100 µM each time. Further, the TGI in experiment [7], in [8] and in experiment [9] was over 100 µM each time.
As for `Fc1cccc(C2SCc3nc4ccccc4n32)c1` (stereo not given), the TGI was over 100 µM in experiment [1]; over 100 µM in [2]; 96.1 µM in experiment [10]; over 100 µM in experiment [3]; over 100 µM in experiment [5]; 55.7 µM in [6]. Besides, the TGI in [7], in experiment [8] and in experiment [9] was over 100 µM in each case.
With `CC(=O)O[C@H]1CC[C@@]2(C)[C@@H](CC[C@@H]3[C@@H]2CC(=O)[C@@]2(C)[C@H]3C[C@@H]3CC(C)=CC(=O)[C@@H]32)C1`, the TGI in experiment [1], in experiment [2], in experiment [10], in experiment [3], in experiment [4] and in experiment [5] was over 100 µM each time. Further, the TGI in experiment [7], in experiment [8] and in [9] was over 100 µM throughout.
On to `Cc1nc(N(C)C)nc(-c2cccc(-c3ccn(CCN(C)C)n3)c2)c1C`, for which the GI50 is over 20 µM in experiment [2]; over 20 µM in [10]; over 20 µM in experiment [3]; over 20 µM in experiment [4]; over 20 µM in experiment [5]; 4.71 µM in [6]. Further, the GI50 in [7], in experiment [8] and in experiment [9] was over 20 µM throughout. Besides, the TGI in experiment [2], in experiment [10], in experiment [3], in experiment [4], in experiment [5] and in experiment [6] was over 20 µM each time. Also, the TGI in [7], in [8] and in [9] was over 20 µM throughout.
`CCCCCCCCCCCC(=O)[O][Sn]([CH2]CCC)([CH2]CCC)[CH2]CCC`: the GI50 in experiment [2] was 0.0357 µM; in experiment [10] it was 0.0409 µM; in experiment [3], 0.0617 µM; in [4] it was under 0.0212 µM; in experiment [5], 0.0842 µM; in experiment [6], 0.0119 µM. The GI50 in experiment [7] is 0.0547 µM; in experiment [8], 0.0355 µM; in experiment [9], 0.0312 µM. The TGI in [2] turned out to be 0.117 µM; in experiment [10], 0.116 µM; in experiment [3], 0.193 µM; in experiment [4] it was 0.153 µM; in [5], 0.363 µM; in [6] it was 0.0728 µM. The results for the TGI in experiment [7], in experiment [8] and in experiment [9] were 0.175 µM, 0.11 µM and 0.145 µM, respectively.
As for `c1ccc2c(c1)-c1nc3ccccc3cc1C2N1CCOCC1` (stereo not given), the TGI in experiment [1], in [2], in experiment [10], in [3], in [4] and in experiment [5] was over 100 µM each time. In addition, the TGI in experiment [7], in experiment [8] and in experiment [9] was over 100 µM in each case.
For `OC(c1cc2c(Cl)cc(Cl)cc2c2cc(C(F)(F)F)ccc12)C1CCCCN1` (stereo not given), the GI50 in experiment [2] is 1.89 µM; in experiment [10] it was 1.55 µM; in experiment [3] it was 1.67 µM; in experiment [4], 2.11 µM; in [6], 1.12 µM; in [7], 1.74 µM. In addition, the values for the GI50 in experiment [8] and in experiment [9] were 1.97 µM and 1.66 µM, respectively. The TGI in [2] was 3.46 µM; in experiment [10], 3.22 µM; in experiment [3], 3.26 µM; in [4], 4.08 µM; in experiment [6] it was 2.57 µM; in experiment [7] it was 3.58 µM. Moreover, the TGI in experiment [8] turned out to be 3.71 µM; in [9], 3.43 µM.
For the molecule `Cn1cc(C2=C(c3cn(CCCN/C(N)=N\[N+](=O)[O-])c4ccccc34)C(=O)NC2=O)c2ccccc21`, the GI50 was 2.77 µM in [2]; 2.44 µM in experiment [10]; 3.43 µM in experiment [3]; 3.22 µM in experiment [4]; 3.98 µM in experiment [5]; 3.89 µM in experiment [6]. The figures for the GI50 in experiment [7], in [8] and in experiment [9] were 3.11 µM, 2.87 µM and 5.13 µM, respectively. Also, the TGI in experiment [2] is over 18.1 µM; in experiment [10] it was 9.99 µM; in [3], over 20 µM; in experiment [4] it was 17.4 µM; in experiment [5], over 18.5 µM; in [6], 16.2 µM. The TGI in experiment [7] turned out to be 11.6 µM; in experiment [8], 12.6 µM; in experiment [9], 15.9 µM.
On to `O=C1C2Cc3ccccc3CN2C(=O)N1CCN1CCOCC1` (stereo not given), for which the TGI in experiment [2], in [10], in [4], in [5], in experiment [7] and in experiment [9] was over 100 µM each time.
Turning to `COc1ccc2c(c1)cn1c3ccc(OC)cc3[nH]c(=O)c21`, the GI50 is under 0.0256 µM in experiment [1]; under 0.0187 µM in experiment [2]; under 0.0134 µM in experiment [10]; under 0.0192 µM in experiment [3]; 0.0382 µM in [4]; under 0.0214 µM in experiment [5]. The GI50 was under 0.0155 µM in experiment [7], under 0.0155 µM in [8] and under 0.0238 µM in [9]. The TGI amounted to 1.76 µM in [1]; 0.247 µM in [2]; 0.15 µM in [10]; 4.48 µM in [3]; 4.92 µM in experiment [4]; 1.46 µM in experiment [5]. Further, the values for the TGI in experiment [7], in [8] and in experiment [9] were 0.813 µM, 0.281 µM and 0.934 µM, respectively.
